Experimental findings from paper PMC10303200 (ACS Central Science, 2023) are described below.

Molecules are shown by their SMILES.

What all share (format): binding
In assay [1] the target is T1, GAL-7 (Homo sapiens, UniProt P47929).
T1 construct: gene LGALS7; homodimer (monomer MW 14.94 kDa)
As to the kind of experiment: Direct native ESI-MS of the GAL-7 homodimer with a mixture of ten glycans (G2, G5-G13), 200 mM ammonium acetate, pH 6.9. As to conditions: SD, n = 8; read-out: Kd (nMS), Table S4.

The target in assay [2] is T2, GAL-3C (Homo sapiens, UniProt P17931). In words: COIN-nMS with a mixture of ten glycans (G2, G5-G13), 200 mM ammonium acetate, pH 6.9. More on the design: gene LGALS3; C-terminal carbohydrate recognition domain fragment, residues 107-250. Particulars: SD, n = 8; read-out: Kd (COIN-nMS), Table S3.
Assay [3] deals with T2, GAL-3C. In words: Direct native ESI-MS with a mixture of ten glycans (G2, G5-G13), 200 mM ammonium acetate, pH 6.9. As to conditions: SD, n = 8; read-out: Kd (nMS), Table S3. More on the design: gene LGALS3; C-terminal carbohydrate recognition domain fragment, residues 107-250.
The target in assay [4] is T1, GAL-7. As to the kind of experiment: COIN-nMS of the GAL-7 homodimer with a mixture of ten glycans (G2, G5-G13), 200 mM ammonium acetate, pH 6.9. Particulars: SD, n = 8; read-out: Kd (COIN-nMS), Table S4.
Assay [5] addresses T3, DC-SIGN CRD (Homo sapiens, UniProt Q9NNX6).
T3 sequence (Q9NNX6 250-404): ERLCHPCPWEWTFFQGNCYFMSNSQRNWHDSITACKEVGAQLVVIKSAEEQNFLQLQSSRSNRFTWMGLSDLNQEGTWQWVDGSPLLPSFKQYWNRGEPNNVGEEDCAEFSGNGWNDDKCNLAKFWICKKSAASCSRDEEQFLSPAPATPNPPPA
In words: Direct native ESI-MS (submicron emitters) with a mixture of ten glycans (G2, G5, G10, G14-G20), 200 mM ammonium acetate with 2.5 mM calcium salt, pH 7.4. More on the design: gene CD209; carbohydrate recognition domain, residues 250-404, MW 17 794 Da. As to conditions: SD, n = 6; read-out: Kd (nMS), Table S5.

The target of assay [6] is T3, DC-SIGN CRD. As to the kind of experiment: COIN-nMS (submicron emitters) with a mixture of ten glycans (G2, G5, G10, G14-G20), 200 mM ammonium acetate with 2.5 mM calcium salt, pH 7.4. More on the design: gene CD209; carbohydrate recognition domain, residues 250-404, MW 17 794 Da. Particulars: SD, n = 6; read-out: Kd (COIN-nMS), Table S5.
Assay [7] deals with Sig7-Fc (Homo sapiens, UniProt Q9Y286). In words: COIN-CaR-nMS with purified oligosaccharides listed beside the library glycans, 200 mM ammonium acetate, pH 6.9. Particulars: SD; read-out: Kd, purified oligosaccharides in Tables S12, S13, S18, S19. More on the design: gene SIGLEC7; residues 1-345, human IgG1 Fc fusion and C-terminal His6, from CHO cells, MW 150 kDa.
Sequence of Sig7-Fc (Q9Y286 1-345): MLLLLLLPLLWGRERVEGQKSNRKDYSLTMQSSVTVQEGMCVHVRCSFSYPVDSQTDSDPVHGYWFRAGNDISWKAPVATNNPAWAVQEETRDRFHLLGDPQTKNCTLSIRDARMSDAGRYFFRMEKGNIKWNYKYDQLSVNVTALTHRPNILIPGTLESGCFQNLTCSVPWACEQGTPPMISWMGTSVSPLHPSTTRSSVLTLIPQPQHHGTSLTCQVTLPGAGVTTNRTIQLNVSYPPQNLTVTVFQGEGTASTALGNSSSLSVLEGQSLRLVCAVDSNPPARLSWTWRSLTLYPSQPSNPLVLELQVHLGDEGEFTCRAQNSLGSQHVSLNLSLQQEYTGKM

T1 sequence (P47929 whole entry): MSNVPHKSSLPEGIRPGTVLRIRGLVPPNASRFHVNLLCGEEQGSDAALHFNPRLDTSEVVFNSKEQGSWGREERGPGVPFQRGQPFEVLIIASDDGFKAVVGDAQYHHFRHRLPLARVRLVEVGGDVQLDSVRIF
T2 sequence (P17931 107-250): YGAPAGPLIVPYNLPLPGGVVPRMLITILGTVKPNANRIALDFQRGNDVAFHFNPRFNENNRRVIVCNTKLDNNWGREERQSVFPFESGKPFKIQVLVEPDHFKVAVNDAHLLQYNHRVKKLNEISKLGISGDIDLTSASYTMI

With `CC(=O)N[C@H]1[C@H](O[C@H]2[C@@H](O)[C@@H](CO)O[C@@H](O[C@H]3[C@H](O)[C@@H](NC(C)=O)[C@H](O[C@H]4[C@@H](O)[C@@H](CO)O[C@@H](O[C@H]5[C@H](O)[C@@H](NC(C)=O)[C@H](O[C@H]6[C@@H](O)[C@@H](CO)O[C@@H](O[C@H]7[C@H](O)[C@@H](O)C(O)O[C@@H]7CO)[C@@H]6O)O[C@@H]5CO)[C@@H]4O)O[C@@H]3CO)[C@@H]2O)O[C@H](CO)[C@@H](O[C@@H]2O[C@H](CO)[C@H](O)[C@H](O)[C@H]2O)[C@@H]1O` (stereo partly drawn) [G8, β-D-Gal-(1→4)-β-D-GlcNAc-(1→3)-β-D-Gal-(1→4)-β-D-GlcNAc-(1→3)-β-D-Gal-(1→4)-β-D-GlcNAc-(1→3)-β-D-Gal-(1→4)-β-D-Glc], the Kd (as a rule, the equilibrium constant for the complex coming apart) in assay [1] amounted to 178 µM; in assay [2], 5.8 µM; in assay [3], 5.5 µM; in assay [4], 232 µM.
In the case of `OC[C@H]1O[C@H](OC[C@H]2O[C@H](OC[C@H]3OC(O)[C@@H](O)[C@@H](O)[C@@H]3O)[C@@H](O)[C@@H](O[C@H]3O[C@H](CO)[C@@H](O)[C@H](O)[C@@H]3O)[C@@H]2O)[C@@H](O)[C@@H](O)[C@@H]1O` (stereo partly shown) [G19, oligomannose glycan G19], the results for the Kd in assay [5] and in assay [6] were 1180 µM and 1500 µM, respectively.
For `OC[C@H]1O[C@H](OC[C@H]2O[C@H](OC[C@H]3OC(O)[C@@H](O)[C@@H](O[C@H]4O[C@H](CO)[C@@H](O)[C@H](O)[C@@H]4O[C@H]4O[C@H](CO)[C@@H](O)[C@H](O)[C@@H]4O)[C@@H]3O)[C@@H](O)[C@@H](O[C@H]3O[C@H](CO)[C@@H](O)[C@H](O)[C@@H]3O)[C@@H]2O)[C@@H](O)[C@@H](O)[C@@H]1O` (stereo partly drawn) [G16, α-D-Man-(1→3)[α-D-Man(1→6)]-α-D-Man(1→6)[α-D-Man(1→2)-α-D-Man-(1→3)]-α-D-Man], in that order: 810 µM and 560 µM.
Turning to `CC(=O)N[C@H]1[C@H](O[C@H]2[C@@H](O)[C@@H](CO)O[C@@H](O[C@H]3[C@H](O)[C@@H](O)C(O)O[C@@H]3CO)[C@@H]2O)O[C@H](CO)[C@@H](O[C@@H]2O[C@H](CO)[C@H](O)[C@H](O)[C@H]2O)[C@@H]1O` (stereo partly drawn) [G9, β-D-Gal-(1→4)-β-D-GlcNAc-(1→3)-β-D-Gal-(1→4)-β-D-Glc], the equilibrium dissociation constant (Kd) in assay [1] came to 348 µM; in assay [2], 12.9 µM; in assay [3] it was 23.2 µM; in assay [4] it was 439 µM.
In the case of `OC[C@H]1O[C@H](O[C@H]2[C@H](O)[C@@H](O)[C@@H](O[C@H]3[C@H](O)[C@@H](O)[C@@H](O[C@H]4[C@H](O)[C@@H](O)[C@@H](O[C@H]5[C@H](O)[C@@H](O)C(O)O[C@@H]5CO)O[C@@H]4CO)O[C@@H]3CO)O[C@@H]2CO)[C@H](O)[C@@H](O)[C@@H]1O` (stereo partly shown) [G20, maltopentaose], the results for the Kd in assay [5] and in assay [6] were 2410 µM and 1830 µM, respectively.
As to `CC(=O)N[C@H]1[C@H](O[C@H]2[C@@H](O)[C@@H](CO)OC(O)[C@@H]2O)O[C@H](CO)[C@@H](O[C@@H]2O[C@@H](C)[C@@H](O)[C@@H](O)[C@@H]2O)[C@@H]1O[C@@H]1O[C@H](CO)[C@H](O)[C@H](O)[C@H]1O[C@@H]1O[C@@H](C)[C@@H](O)[C@@H](O)[C@@H]1O` (stereo partly shown) [G17, blood group antigen G17], the values for the dissociation constant Kd in assay [5] and in assay [6] were 620 µM and 550 µM, respectively.
For `CC(=O)N[C@H]1[C@H](O[C@H]2[C@@H](O)[C@@H](CO)O[C@@H](O[C@H]3[C@H](O)[C@@H](O)C(O)O[C@@H]3CO)[C@@H]2O)O[C@H](CO)[C@@H](O[C@@H]2O[C@H](CO)[C@H](O)[C@H](O[C@H]3O[C@H](CO)[C@H](O)[C@H](O)[C@H]3O)[C@H]2O[C@@H]2O[C@@H](C)[C@@H](O)[C@@H](O)[C@@H]2O)[C@@H]1O` (stereo partly shown) [G18, blood group antigen G18], in that order: 3330 µM and 1870 µM.
Consider `CC(=O)N[C@H]1[C@H](O[C@H]2[C@@H](O)[C@@H](CO)O[C@@H](O[C@H]3[C@H](O)[C@@H](NC(C)=O)[C@H](O[C@H]4[C@@H](O)[C@@H](CO)O[C@@H](O[C@H]5[C@H](O)[C@@H](O)C(O)O[C@@H]5CO)[C@@H]4O)O[C@@H]3CO)[C@@H]2O)O[C@H](CO)[C@@H](O[C@@H]2O[C@H](CO)[C@H](O)[C@H](O)[C@H]2O)[C@@H]1O` (stereo partly drawn) [G7, β-D-Gal-(1→4)-β-D-GlcNAc(1→3)-β-D-Gal(1→4)-β-D-GlcNAc(1→3)-β-D-Gal(1→4)-β-D-Glc], for which the Kd in assay [1] was found to be 348 µM; in assay [2], 2.9 µM; in assay [3], 5 µM; in assay [4], 362 µM.
With `CC(=O)N[C@H]1[C@@H](O[C@H]2[C@@H](O)[C@@H](CO)O[C@@H](O[C@H]3[C@H](O)[C@@H](O)C(O)O[C@@H]3CO)[C@@H]2O[C@@H]2O[C@@H](C)[C@@H](O)[C@@H](O)[C@@H]2O)O[C@H](CO)[C@H](O)[C@@H]1O` (stereo partly drawn) [G12, α-D-GalNAc-(1→3)-[α-L-Fuc-(1→2)]-β-D-Gal-(1→4)-β-D-Glc], the Kd in assay [1] is 184 µM; in assay [2], 10.4 µM; in assay [3] it was 11.3 µM; in assay [4] it was 333 µM.
With `CC(=O)N[C@H]1[C@H](O[C@H]2[C@@H](O)[C@@H](CO)O[C@@H](O[C@H]3[C@H](O[C@@H]4O[C@@H](C)[C@@H](O)[C@@H](O)[C@@H]4O)[C@@H](O)C(O)O[C@@H]3CO)[C@@H]2O)O[C@H](CO)[C@@H](O)[C@@H]1O[C@@H]1O[C@H](CO)[C@H](O)[C@H](O)[C@H]1O` (stereo partly drawn) [G6, β-D-Gal(1→3)-β-D-GlcNAc(1→3)-β-D-Gal(1→4)-[α-L-Fuc(1→3)]-β-D-Glc], the Kd in assay [1] was found to be 232 µM; in assay [2] it was 101 µM; in assay [3], 26.8 µM; in assay [4], 278 µM.
For `CC(=O)N[C@H]1[C@@H](O[C@H]2[C@@H](O)[C@@H](CO)O[C@@H](O[C@H]3[C@H](O)[C@@H](CO)O[C@@H](O[C@H]4[C@@H](O)[C@@H](CO)O[C@@H](O[C@H]5[C@H](O)[C@@H](O)C(O)O[C@@H]5CO)[C@@H]4O)[C@@H]3NC(C)=O)[C@@H]2O[C@@H]2O[C@@H](C)[C@@H](O)[C@@H](O)[C@@H]2O)O[C@H](CO)[C@H](O)[C@@H]1O` (stereo partly drawn) [G13, α-D-GalNAc-(1→3)-[α-L-Fuc-(1→2)]-β-D-Gal-(1→3)-β-D-GlcNAc-(1→3)-β-D-Gal-(1→4)-β-D-Glc], in that order: 261 µM, 2.4 µM, 4.6 µM and 261 µM.
Turning to `CC(=O)N[C@H]1[C@@H](O[C@H]2[C@@H](O)[C@@H](CO)O[C@@H](O[C@H]3[C@H](O)[C@@H](NC(C)=O)C(O)O[C@@H]3CO)[C@@H]2O[C@@H]2O[C@@H](C)[C@@H](O)[C@@H](O)[C@@H]2O)O[C@H](CO)[C@H](O)[C@@H]1O` (stereo partly drawn) [G10, α-D-GalNAc(1→3)-[α-L-Fuc(1→2)]-β-D-Gal(1→4)-D-GlcNAc], the Kd was determined as 731 µM in assay [1]; 10.9 µM in assay [2]; 6010 µM in assay [5]; 17.9 µM in assay [3]; 2920 µM in assay [6]; 437 µM in assay [4].
For the molecule `OC[C@H]1O[C@H](O[C@@H]2[C@H](O)[C@@H](OC[C@H]3OC(O)[C@@H](O)[C@@H](O[C@H]4O[C@H](CO)[C@@H](O)[C@H](O)[C@@H]4O[C@H]4O[C@H](CO)[C@@H](O)[C@H](O)[C@@H]4O[C@H]4O[C@H](CO)[C@@H](O)[C@H](O)[C@@H]4O)[C@@H]3O)O[C@H](CO[C@H]3O[C@H](CO)[C@@H](O)[C@H](O)[C@@H]3O[C@H]3O[C@H](CO)[C@@H](O)[C@H](O)[C@@H]3O)[C@H]2O)[C@@H](O)[C@@H](O)[C@@H]1O` (stereo partly drawn) [G14, α-D-Man-(1→2)-α-D-Man-(1→6)-[α-D-Man-(1→3)]-α-D-Man-(1→6)-[α-D-Man-(1→2)-α-D-Man-(1→2)-α-D-Man-(1→3)]-α-D-Man], the Kd in assay [5] worked out at 270 µM; in assay [6], 260 µM.
For `CC(=O)N[C@H]1[C@H](O[C@@H]2[C@H](O[C@]3(C(=O)O)C[C@H](O)[C@@H](NC(C)=O)[C@H]([C@H](O)[C@@H](CO)O[C@]4(C(=O)O)C[C@H](O)[C@@H](NC(C)=O)[C@H]([C@H](O)[C@H](O)CO)O4)O3)[C@@H](O)[C@H](O[C@H]3[C@H](O)[C@@H](O)C(O)O[C@@H]3CO)O[C@@H]2CO)O[C@H](CO)[C@H](O)[C@@H]1O` (stereo partly drawn) [G29, GD2 oligosaccharide, α-D-GalNAc(1→4)-[α-D-Neu5Ac-(2→8)-α-D-Neu5Ac-(2→3)]-β-D-Gal-(1→4)-D-Glc], the Kd in assay [7] amounted to 205 µM.
